Measured values published in patent US7851626B2, “4,4,5,5, tetrasubstituted imidazolines” (Hoffmann-La Roche Inc., priority 2005, dated 2010).

Biological target: interaction between p53 and MDM2 proteins (Homo sapiens, UniProt Q00987)
Assay: HTRF assay of inhibition of the p53-MDM2 interaction (GST-MDM2 and biotinylated p53 peptide)
Assay type: binding
Conditions: recombinant GST-tagged MDM2, biotinylated p53 peptide, 37° C. for 1 h
Description: The ability of the compounds to inhibit the interaction between p53 and MDM2 proteins was measured by an HTRF (homogeneous time-resolved fluorescence) assay in which recombinant GST-tagged MDM2 binds to a peptide that resembles the MDM2-interacting region of p53 (Lane et al.). Binding of GST-MDM2 protein and p53-peptide (biotinylated on its N-terminal end) is registered by the FRET (fluorescence resonance energy transfer) between Europium (Eu)-labeled anti-GST antibody and streptavidin-conjugated Allophycocyanin (APC).
Test is performed in black flat-bottom 384-well plates (Costar) in a total volume of 40 uL containing: 90 nM biotinylate peptide, 160 ng/mL GST-MDM2, 20 nM streptavidin-APC (PerkinElmerWallac), 2 nM Eu-labeled anti-GST-antibody (PerkinElmerWallac), 0.2% bovine serum albumin (BSA), 1 mM dithiothreitol (DTT) and 20 mM Tris-borate saline (TBS) buffer as follows: Add 10 uL of GST-MDM2 (640 ng/mL working solution) in reaction buffer to each well. […] Incubate at 37° C. for 1 h. […] If not specified, the reagents were purchased from Sigma Chemical Co.

interaction between p53 and MDM2 proteins, sequence (Q00987 whole entry): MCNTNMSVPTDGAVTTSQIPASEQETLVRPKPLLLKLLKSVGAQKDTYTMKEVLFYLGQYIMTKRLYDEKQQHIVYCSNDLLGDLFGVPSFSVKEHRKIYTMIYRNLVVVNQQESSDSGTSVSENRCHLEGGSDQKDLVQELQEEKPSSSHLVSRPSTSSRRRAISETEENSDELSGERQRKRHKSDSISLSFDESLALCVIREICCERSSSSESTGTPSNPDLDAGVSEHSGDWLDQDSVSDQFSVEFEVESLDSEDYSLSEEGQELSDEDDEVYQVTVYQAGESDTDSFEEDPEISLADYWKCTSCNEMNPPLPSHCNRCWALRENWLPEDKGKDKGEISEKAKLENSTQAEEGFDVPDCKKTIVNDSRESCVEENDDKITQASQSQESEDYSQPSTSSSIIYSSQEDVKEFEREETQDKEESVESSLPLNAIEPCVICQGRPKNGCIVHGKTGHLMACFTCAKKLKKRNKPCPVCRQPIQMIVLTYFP

IC50 [nM]	SMILES
48	COc1ccc(C2=N[C@@](C)(c3ccc(Cl)cc3)[C@@H](c3ccc(Cl)cc3)N2C(=O)N2CCN(C(C)=O)CC2)c(OC(C)C)c1 (racemic) [Example 190, rac-1-{4-[(4S*,5R*)-4,5-Bis-(4-chloro-phenyl)-2-(2-isopropoxy-4-methoxy-phenyl)-4-methyl-4,5-dihydro-imidazole-1-carbonyl]-piperazin-1-yl}-ethanone]
107	CCOc1cc(C(C)(C)C)ccc1C1=N[C@@](C)(c2ccc(Cl)cc2)[C@@H](c2ccc(Cl)cc2)N1C(=O)N1CCN(C(C)=O)CC1 [Example 177, 1-{4-[(4S,5R)-2-(4-tert-Butyl-2-ethoxy-phenyl)-4,5-bis-(4-chloro-phenyl)-4-methyl-4,5-dihydro-imidazole-1-carbonyl]-piperazin-1-yl}-ethanone]
17	CCOc1cc(S(=O)(=O)N2CCCC2)ccc1C1=N[C@@](C)(c2ccc(Cl)cc2)[C@@](C)(c2ccc(Cl)cc2)N1C(=O)N1CCN(CC(N)=O)CC1 [Example 35, 2-(4-{(4S,5R)-4,5-Bis-(4-chloro-phenyl)-2-[2-ethoxy-4-(pyrrolidine-1-sulfonyl)-phenyl]-4,5-dimethyl-4,5-dihydro-imidazole-1-carbonyl}-piperazin-1-yl)-acetamide]
